# Reference: US11578087B2, “Oxaborole esters and uses thereof” (priority 2016, dated 2023)
# What was measured:
# [1] = system: T. cruzi amastigote (Td Tomato-modified) in Vero cells; assay: In vitro IC50 measurement of T. cruzi amastigote killing using Td Tomato-modified T. cruzi; format: cell-based; details: Trypanosoma cruzi, 72 h, fluorescence, read-out: IC50: I Org. amastigote Growth T. cruzi 3 d
# Summary of the method: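 IC50/IC90 came from nonlinear regression of Day 3 minus Day 0 fluorescence (544/612 nm), correcting for input parasites. Final compound concentrations spanned 5 nM–5 uM on Td Tomato T. cruzi-infected Vero cells, 72 h at 37 °C.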
# [2] = system: IL3000 T. congolense (drug sensitive) strain; assay: In vitro Alamar Blue 72 h drug sensitivity assay for T. congolense; format: cell-based, Trypanosoma congolense; details: Trypanosoma congolense, 72 h, bloodstream form, 69 h + 3 h Resazurin, 34° C., read-out: IC50: I Org. Growth T. congolense 3 d
# Description: Example 252. In Vitro Alamar Blue 72 h Drug Sensitivity Assay for T. congolense
# Compounds were tested in vitro for chemotherapeutic potency against the IL3000 T. congolense (drug sensitive) strain, using the Alamar Blue assay with several modifications. Test compounds were prepared as 10 mg/mL DMSO stocks for each assay run. Compounds were assayed in at least three separate, independent test runs and an 11-point dilution curve was used to determine the IC50 values. Bloodstream form trypanosomes were supported in HMI media containing 20% bovine serum and were incubated with test compounds for 69 h at 34° C. in a humidified atmosphere containing 5% CO2. Thereafter, 10 μL of Resazurin dye (12.5 mg in 100 mL of phosphate buffered saline, Sigma-Aldrich, Buchs, Switzerland) were added for an additional 3 h. Plates were then read using a fluorescent plate reader (Spectramax, Gemini XS, Bucher Biotec, Basel, Switzerland) using an excitation wavelength of 536 nm and an emission wavelength of 588 nm. Data points were averaged to generate sigmoidal dose-response curves and IC50 values were determined using Softmax Pro 5.2 software.
Structure (SMILES),IC50 [1] [nM],IC50 [2] [nM]
"Cc1c(C(=O)N[C@H](C(=O)OC[C@H]2COC(C)(C)O2)C(C)C)ccc2c1B(O)OC2 [Example 6-144, ((R)-2,2-Dimethyl-1,3-dioxolan-4-yl)methyl (1-hydroxy-7-methyl-1,3-dihydrobenzo[c][1,2]oxaborole-6-carbonyl)-L-valinate]",≤ 20,0.51 to 9.99
"Cc1c(C(=O)N[C@H](C(=O)OCCN2CCOCC2C)C(C)C)ccc2c1B(O)OC2 (stereo partly drawn) [Example 6-219, 2-(3-methylmorpholino)ethyl (1-hydroxy-7-methyl-1,3-dihydrobenzo[c][1,2]oxaborole-6-carbonyl)-L-valinate]",21 to 999,< 0.5
"Cc1c(C(=O)N[C@H](C(=O)OCCN2CC3(COC3)C2)C(C)C)ccc2c1B(O)OC2 [Example 6-218, 2-(2-oxa-6-azaspiro[3.3]heptan-6-yl)ethyl (1-hydroxy-7-methyl-1,3-dihydrobenzo[c][1,2]oxaborole-6-carbonyl)-L-valinate]",≥ 1000,10 to 5000
"Cc1c(C(=O)N[C@H](C(=O)OCc2cccc(N3CCOCC3)n2)C(C)C)ccc2c1B(O)OC2 [Example 6-197, (6-morpholinopyridin-2-yl)methyl (1-hydroxy-7-methyl-1,3-dihydrobenzo[c][1,2]oxaborole-6-carbonyl)-L-valinate]",≤ 20,< 0.5
"Cc1c(C(=O)N[C@H](C(=O)OCc2ccc(OCCN3CCOCC3)cc2)C(C)C)ccc2c1B(O)OC2 [Example 6-247, 4-(2-Morpholinoethoxy)benzyl(1-hydroxy-7-methyl-1,3-dihydrobenzo[c][1,2]oxaborole-6-carbonyl)-L-valinate]",≤ 20,0.51 to 9.99
"Cc1c(C(=O)N[C@H](C(=O)OCc2ccc(F)cc2)[C@@H](C)OCc2ccccc2)ccc2c1B(O)OC2 [Example 6-077, 4-Fluorobenzyl O-benzyl-N-(1-hydroxy-7-methyl-1,3-dihydrobenzo[c][1,2]oxaborole-6-carbonyl)-L-threoninate]",≤ 20,0.51 to 9.99
"CCOc1c(C(=O)N[C@H](C(=O)OCc2ccc(F)cc2)C(C)C)ccc2c1B(O)OC2 [Example 6-196, 4-Fluorobenzyl (7-ethoxy-1-hydroxy-1,3-dihydrobenzo[c][1,2]oxaborole-6-carbonyl)-L-valinate]",≥ 1000,0.51 to 9.99
"Cc1c(C(=O)N[C@H](C(=O)OCc2ccc(F)cc2)C(C)C)ccc2c1B(O)OC2C (stereo partly drawn) [Example 6-061, 4-Fluorobenzyl (3,7-dimethyl-1-hydroxy-1,3-dihydrobenzo[c][1,2]oxaborole-6-carbonyl)-L-valinate]",21 to 999,0.51 to 9.99
"Cc1c(C(=O)N[C@H](C(=O)OCc2ccc(F)c(C(F)(F)F)c2)C(C)C)ccc2c1B(O)OC2 [Example 6-049, 4-Fluoro-3-(trifluoromethyl)benzyl (1-hydroxy-7-methyl-1,3-dihydrobenzo[c][1,2]oxaborole-6-carbonyl)-L-valinate]",≤ 20,< 0.5
"Cc1c(C(=O)N[C@H](C(=O)OCc2cscn2)C(C)C)ccc2c1B(O)OC2 [Example 6-128, Thiazol-4-ylmethyl (1-hydroxy-7-methyl-1,3-dihydrobenzo[c][1,2]oxaborole-6-carbonyl)-L-valinate]",21 to 999,< 0.5
"CCc1c(C(=O)N[C@H](C(=O)OCc2ccccc2)C(C)C)ccc2c1B(O)OC2 [Example 6-053, Benzyl (7-ethyl-1-hydroxy-1,3-dihydrobenzo[c][1,2]oxaborole-6-carbonyl)-L-valinate]",21 to 999,< 0.5
"O=C(N[C@@H](Cc1ccccc1)C(=O)OCc1ccccc1)c1ccc2c(c1)B(O)OC2 [Example 6-009, Benzyl (1-hydroxy-1,3-dihydrobenzo[c][1,2]oxaborole-6-carbonyl)-L-phenylalaninate]",≥ 1000,0.51 to 9.99
"Cc1c(C(=O)N[C@H](C(=O)OCc2cc(F)cc(F)c2)C(C)(C)O)ccc2c1B(O)OC2 [Example 6-099, 3,5-Difluorobenzyl (S)-3-hydroxy-2-(1-hydroxy-7-methyl-1,3-dihydrobenzo[c][1,2]oxaborole-6-carboxamido)-3-methylbutanoate]",21 to 999,< 0.5
"Cc1c(C(=O)N[C@H](C(=O)OCC2(F)CCOCC2)C(C)C)ccc2c1B(O)OC2 [Example 6-226, (4-fluorotetrahydro-2H-pyran-4-yl)methyl (1-hydroxy-7-methyl-1,3-dihydrobenzo[c][1,2]oxaborole-6-carbonyl)-L-valinate]",≤ 20,< 0.5
"Cc1c(C(=O)N[C@H](C(=O)OCC2CCN(C)CC2)C(C)C)ccc2c1B(O)OC2 [Example 6-114, (1-Methylpiperidin-4-yl)methyl (1-hydroxy-7-methyl-1,3-dihydrobenzo[c][1,2]oxaborole-6-carbonyl)-L-valinate]",21 to 999,0.51 to 9.99
"Cc1c(C(=O)N[C@H](C(=O)OCc2ccc(Cl)c(OCCN3CCOCC3)c2)C(C)C)ccc2c1B(O)OC2 [Example 6-167, 4-Chloro-3-(2-morpholinoethoxy)benzyl (1-hydroxy-7-methyl-1,3-dihydrobenzo[c][1,2]oxaborole-6-carbonyl)-L-valinate]",≤ 20,< 0.5
"Cc1c(C(=O)N[C@H](C(=O)OC2CCC(F)(F)CC2)C(C)C)ccc2c1B(O)OC2 [Example 6-155, 4,4-Difluorocyclohexyl (1-hydroxy-7-methyl-1,3-dihydrobenzo[c][1,2]oxaborole-6-carbonyl)-L-valinate]",≤ 20,< 0.5
"Cc1c(C(=O)N[C@H](C(=O)OCc2ccc(NS(C)(=O)=O)cc2)C(C)C)ccc2c1B(O)OC2 [Example 6-075, 4-(Methylsulfonamido)benzyl (1-hydroxy-7-methyl-1,3-dihydrobenzo[c][1,2]oxaborole-6-carbonyl)-L-valinate]",≥ 1000,10 to 5000
"Cc1c(C(=O)N[C@H](C(=O)OCc2nccs2)C(C)C)ccc2c1B(O)OC2 [Example 6-124, Thiazol-2-ylmethyl (1-hydroxy-7-methyl-1,3-dihydrobenzo[c][1,2]oxaborole-6-carbonyl)-L-valinate]",21 to 999,< 0.5
"Cc1c(C(=O)N[C@H](C(=O)OCCN2CCOC2=O)C(C)C)ccc2c1B(O)OC2 [Example 6-216, 2-(2-oxooxazolidin-3-yl)ethyl (1-hydroxy-7-methyl-1,3-dihydrobenzo[c][1,2]oxaborole-6-carbonyl)-L-valinate]",≥ 1000,10 to 5000
"Cc1c(C(=O)N[C@H](C(=O)OCC(C)(C)O)C(C)C)ccc2c1B(O)OC2 [Example 6-211, 2-hydroxy-2-methylpropyl (1-hydroxy-7-methyl-1,3-dihydrobenzo[c][1,2]oxaborole-6-carbonyl)-L-valinate]",21 to 999,0.51 to 9.99
"NC(=O)C[C@H](NC(=O)c1ccc2c(c1)B(O)OC2)C(=O)OCc1ccccc1 [Example 6-010, Benzyl (1-hydroxy-1,3-dihydrobenzo[c][1,2]oxaborole-6-carbonyl)-L-asparaginate]",≥ 1000,10 to 5000
"Cc1c(C(=O)N[C@H](C(=O)OC[C@H]2CCCO2)C(C)C)ccc2c1B(O)OC2 [Example 6-215, ((R)-tetrahydrofuran-2-yl)methyl (1-hydroxy-7-methyl-1,3-dihydrobenzo[c][1,2]oxaborole-6-carbonyl)-L-valinate]",≤ 20,< 0.5
"Cc1c(C(=O)N[C@H](C(=O)OCc2ccc(F)cc2)C2CCCC2)ccc2c1B(O)OC2 [Example 6-060, 4-Fluorobenzyl (S)-2-cyclopentyl-2-(1-hydroxy-7-methyl-1,3-dihydrobenzo[c][1,2]oxaborole-6-carboxamido)acetate]",21 to 999,0.51 to 9.99
"Cc1c(C(=O)N[C@H](C(=O)OCCN2CC(C)OC(C)C2)C(C)C)ccc2c1B(O)OC2 (stereo partly drawn) [Example 6-206, 2-(2,6-dimethylmorpholino)ethyl (1-hydroxy-7-methyl-1,3-dihydrobenzo[c][1,2]oxaborole-6-carbonyl)-L-valinate]",21 to 999,< 0.5
"Cc1c(C(=O)N[C@H](C(=O)OC(C)(C)C)C(C)C)ccc2c1B(O)OC2 [Example 6-188, Tert-butyl (1-hydroxy-7-methyl-1,3-dihydrobenzo[c][1,2]oxaborole-6-carbonyl)-L-valinate]",≥ 1000,10 to 5000
"Cc1c(C(=O)N[C@H](C(=O)OCC(CO)CO)C(C)C)ccc2c1B(O)OC2 [Example 6-149, 3-hydroxy-2-(hydroxymethyl)propyl (1-hydroxy-7-methyl-1,3-dihydrobenzo[c][1,2]oxaborole-6-carbonyl)-L-valinate]",≥ 1000,10 to 5000
"Cc1c(C(=O)N[C@H](C(=O)OCc2cccc(OC(F)(F)F)c2)C(C)C)ccc2c1B(O)OC2 [Example 6-055, 3-Trifluoromethoxybenzyl (1-hydroxy-7-methyl-1,3-dihydrobenzo[c][1,2]oxaborole-6-carbonyl)-L-valinate]",≤ 20,< 0.5
